Source: EP4603105A1, “PHARMACEUTICAL COMPOSITION CONTAINING CYCLIC COMPOUND HAVING SELECTIVE KRAS INHIBITORY EFFECT AGAINST HRAS AND NRAS” (CHUGAI SEIYAKU KABUSHIKI KAISHA, priority 2022, dated 2024)

Columns and labels:
[1] = system: human lung cancer strain NCI-H441; type: cell-based
Method in brief: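 Step one: dispense the test compound in serial DMSO dilutions. Step three: add the reagent and measure […].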

HRAS wild-type protein = HRAS wild-type protein (Homo sapiens, UniProt P01112); test: Binding to HRAS by surface plasmon resonance (SPR), KD and KD ratio to KRAS; settings: ratio of the KD value with respect to HRAS wild-type protein to the KD value with respect to KRAS
Chain of HRAS wild-type protein (P01112 whole entry): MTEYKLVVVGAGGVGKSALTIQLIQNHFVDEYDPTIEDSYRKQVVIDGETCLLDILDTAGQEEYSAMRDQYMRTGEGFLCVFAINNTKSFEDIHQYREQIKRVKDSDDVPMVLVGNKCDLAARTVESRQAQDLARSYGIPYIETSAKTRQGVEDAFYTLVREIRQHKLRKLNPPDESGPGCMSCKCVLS
Method in brief: (§1)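 Biotinylated GDP-bound RAS was captured at about 100–300 RU. Running buffer: HBS pH 7.4, 10 mM MgCl2, 10 µM GDP, 1 mM DTT, 0.01% Tween 20, 4% DMSO.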

[2] = molecular target: GDP-bound NRAS wild-type protein (Homo sapiens, UniProt P01111); test: Binding to NRAS by surface plasmon resonance (SPR), KD and KD ratio to KRAS; settings: ratio of the KD value with respect to GDP-bound NRAS wild-type protein to the KD value with respect to KRAS
Chain of GDP-bound NRAS wild-type protein (P01111 whole entry): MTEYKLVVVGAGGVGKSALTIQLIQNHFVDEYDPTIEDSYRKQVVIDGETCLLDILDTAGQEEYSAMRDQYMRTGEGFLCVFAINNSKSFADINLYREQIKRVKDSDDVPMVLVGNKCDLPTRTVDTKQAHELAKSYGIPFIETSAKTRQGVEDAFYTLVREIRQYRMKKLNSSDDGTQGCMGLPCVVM
Method in brief: as §1

Row | Structure (SMILES) | IC50 [1] [nM] | HRAS /KRAS (HRAS wild-type protein) | NRAS /KRAS [2]
1 | CCOC[C@H]1C(=O)N[C@@H]([C@@H](C)CC)C(=O)N(C)CC(=O)N(C)[C@H]2C/C=C\CCN(C2=O)[C@@H](Cc2ccc(C(F)(F)F)cc2)C(=O)N(C)CC(=O)N[C@@H](CCc2cc(F)c(C(F)(F)F)c(F)c2)C(=O)N2C[C@H](OCC)C[C@H]2C(=O)NC2(CC(C)(C)C2)C(=O)N(C)[C@@H](C2CCCC2)C(=O)N(C)[C@H](C(=O)N(C)CC)CC(=O)N1C [PP2032] | 8.1 | B (a compound having 3 or more and less than 10 is denoted as B) | A (a compound having 10 or more and less than 20 is denoted as A)
2 | CCO[C@@H]1C[C@H]2C(=O)NC3(CC(C)(C)C3)C(=O)N(C)[C@@H](C3CCCC3)C(=O)N(C)[C@H](C(=O)N(C)CC)CC(=O)N(C)[C@@H](C(C)C)C(=O)N[C@@H]([C@@H](C)CC)C(=O)N(C)CC(=O)N(C)[C@H]3C/C=C\CCN(C3=O)[C@@H](Cc3ccc(C(F)(F)F)cc3)C(=O)N(C)CC(=O)N[C@@H](CCc3cc(F)c(C(F)(F)F)c(F)c3)C(=O)N2C1 [PP2034] | 8.8 | A (a compound having 10 or more and less than 20 is denoted as A) | A (a compound having 10 or more and less than 20 is denoted as A)
3 | CCO[C@@H]1C[C@H]2C(=O)NC3(CC(C)(C)C3)C(=O)N(C)[C@@H](C3CCCC3)C(=O)N(C)[C@H](C(=O)N(C)CC)CC(=O)N(C)[C@@H](C3CC3)C(=O)N[C@@H]([C@@H](C)CC)C(=O)N(C)CC(=O)N(C)[C@H]3C/C=C\CCN(C3=O)[C@@H](Cc3ccc(C(F)(F)F)cc3)C(=O)N(C)CC(=O)N[C@@H](CCc3cc(F)c(C(F)(F)F)c(F)c3)C(=O)N2C1 [PP2036] | 9.1 | A (a compound having 10 or more and less than 20 is denoted as A) | A (a compound having 10 or more and less than 20 is denoted as A)
4 | CCO[C@@H]1C[C@H]2C(=O)NC3(CC(C)(C)C3)C(=O)N(C)[C@@H](C3CCCC3)C(=O)N(C)[C@H](C(=O)N(C)CC)CC(=O)N(C)[C@@H](C3CCC3)C(=O)N[C@@H]([C@@H](C)CC)C(=O)N(C)CC(=O)N(C)[C@H]3C/C=C\CCN(C3=O)[C@@H](Cc3ccc(C(F)(F)F)cc3)C(=O)N(C)CC(=O)N[C@@H](CCc3cc(F)c(C(F)(F)F)c(F)c3)C(=O)N2C1 [PP2038] | 5.5 | A (a compound having 10 or more and less than 20 is denoted as A) | A (a compound having 10 or more and less than 20 is denoted as A)
5 | CCCN(C)C(=O)[C@@H]1CC(=O)N(C)[C@@H](CC(F)F)C(=O)N[C@@H]([C@@H](C)CC)C(=O)N(C)CC(=O)N(C)[C@H]2C/C=C\CCN(C2=O)[C@@H](Cc2ccc(C(F)(F)F)cc2)C(=O)N(C)CC(=O)N[C@@H](CCc2cc(F)c(C(F)(F)F)c(F)c2)C(=O)N2C[C@@H](C)C[C@H]2C(=O)NC2(CC(C)(C)C2)C(=O)N(C)[C@@H](C2CCCC2)C(=O)N1C [PP2040] | 10.5 | A (a compound having 10 or more and less than 20 is denoted as A) | A (a compound having 10 or more and less than 20 is denoted as A)
6 | CCCN(C)C(=O)[C@@H]1CC(=O)N(C)[C@@H](COCC)C(=O)N[C@@H]([C@@H](C)CC)C(=O)N(C)CC(=O)N(C)[C@H]2C/C=C\CCN(C2=O)[C@@H](Cc2ccc(C(F)(F)F)cc2)C(=O)N(C)CC(=O)N[C@@H](CCc2cc(F)c(C(F)(F)F)c(F)c2)C(=O)N2C[C@@H](C)C[C@H]2C(=O)NC2(CC(C)(C)C2)C(=O)N(C)[C@@H](C2CCCC2)C(=O)N1C [PP2041] | 7.7 | A (a compound having 10 or more and less than 20 is denoted as A) | A (a compound having 10 or more and less than 20 is denoted as A)
7 | CCOC[C@H]1C(=O)N[C@@H]([C@@H](C)CC)C(=O)N(C)CC(=O)N(C)[C@H]2C/C=C\CCN(C2=O)[C@@H](Cc2ccc(C(F)(F)F)cc2)C(=O)N(C)CC(=O)N[C@@H](CCc2cc(F)c(C(F)(F)F)c(F)c2)C(=O)N2C[C@@H](C)C[C@H]2C(=O)NC2(CC(C)(C)C2)C(=O)N(C)[C@@H](C2CCCC2)C(=O)N(C)[C@H](C(=O)N(C)CC)CC(=O)N1C [PP2042] | 5.9 | A (a compound having 10 or more and less than 20 is denoted as A) | A (a compound having 10 or more and less than 20 is denoted as A)
8 | CCCOC[C@H]1C(=O)N[C@@H]([C@@H](C)CC)C(=O)N(C)CC(=O)N(C)[C@H]2C/C=C\CCN(C2=O)[C@@H](Cc2ccc(C(F)(F)F)cc2)C(=O)N(C)CC(=O)N[C@@H](CCc2cc(F)c(C(F)(F)F)c(F)c2)C(=O)N2C[C@@H](C)C[C@H]2C(=O)NC2(CC(C)(C)C2)C(=O)N(C)[C@@H](C2CCCC2)C(=O)N(C)[C@H](C(=O)N(C)CC)CC(=O)N1C [PP2043] | 28 | A (a compound having 10 or more and less than 20 is denoted as A) | A (a compound having 10 or more and less than 20 is denoted as A)
9 | CCO[C@@H]1C[C@H]2C(=O)NC3(CC(C)(C)C3)C(=O)N(C)[C@@H](C3CCCC3)C(=O)N(C)[C@H](C(=O)N(C)CC)CC(=O)N(C)[C@@H](CC(C)C)C(=O)N[C@@H]([C@@H](C)CC)C(=O)N(C)CC(=O)N(C)[C@H]3C/C=C\CCN(C3=O)[C@@H](Cc3ccc(C(F)F)cc3)C(=O)N(C)CC(=O)N[C@@H](CCc3cc(F)c(C(F)(F)F)c(F)c3)C(=O)N2C1 [PP2046] | 2.2 | A (a compound having 10 or more and less than 20 is denoted as A) | A (a compound having 10 or more and less than 20 is denoted as A)
10 | CCO[C@@H]1C[C@H]2C(=O)NC3(CC(C)(C)C3)C(=O)N(C)[C@@H](C3CCCC3)C(=O)N(C)[C@H](C(=O)N(C)C)CC(=O)N(C)[C@@H](CC)C(=O)N[C@@H]([C@@H](C)CC)C(=O)N(C)CC(=O)N(C)[C@H]3C/C=C\CCN(C3=O)[C@@H](Cc3ccc(Cl)cc3F)C(=O)N(C)CC(=O)N[C@@H](CCc3cc(F)c(C(F)(F)F)c(F)c3)C(=O)N2C1 [PP2048] | 3.6 | B (a compound having 3 or more and less than 10 is denoted as B) | A (a compound having 10 or more and less than 20 is denoted as A)
11 | CCO[C@@H]1C[C@H]2C(=O)NC3(CC(C)(C)C3)C(=O)N(C)[C@@H](C3CCCC3)C(=O)N(C)[C@H](C(=O)N(C)C)CC(=O)N(C)[C@@H](CC)C(=O)N[C@@H]([C@@H](C)CC)C(=O)N(C)CC(=O)N(C)[C@H]3C/C=C\CCN(C3=O)[C@@H](Cc3ccc(C(F)F)cc3)C(=O)N(C)CC(=O)N[C@@H](CCc3cc(F)c(C(F)(F)F)c(F)c3)C(=O)N2C1 [PP2049] | 6.1 | B (a compound having 3 or more and less than 10 is denoted as B) | A (a compound having 10 or more and less than 20 is denoted as A)
12 | C=CCN1CC(=O)N(C)[C@H]2C/C=C\CCN(C2=O)[C@@H](Cc2ccc(C)cc2)C(=O)N(C)CC(=O)N[C@@H](CCc2cc(F)c(C(F)(F)F)c(F)c2)C(=O)N2C[C@H](OCC)C[C@H]2C(=O)NC2(CC(C)(C)C2)C(=O)N(C)[C@@H](C2CCCC2)C(=O)N(C)[C@H](C(=O)N(C)C)CC(=O)N(C)[C@@H](CC(C)C)C(=O)N[C@@H]([C@@H](C)CC)C1=O [PP2050] | 7.5 | A (a compound having 10 or more and less than 20 is denoted as A) | A (a compound having 10 or more and less than 20 is denoted as A)
13 | C#CC[C@H]1C(=O)N[C@@H]([C@@H](C)CC)C(=O)N(C)CC(=O)N(C)[C@H]2C/C=C\CCN(C2=O)[C@@H](Cc2ccc(C(F)(F)F)cc2)C(=O)N(C)CC(=O)N[C@@H](CCc2ccc(C(F)(F)F)c(OC)c2)C(=O)N2C[C@H](OCC)C[C@H]2C(=O)NC2(CC(C)(C)C2)C(=O)N(C)[C@@H](C2CCCC2)C(=O)N(C)[C@H](C(=O)N(C)CC)CC(=O)N1C [PP2051] | 6.9 | A (a compound having 10 or more and less than 20 is denoted as A) | A (a compound having 10 or more and less than 20 is denoted as A)
14 | C#CCN1CC(=O)N(C)[C@H]2C/C=C\CCN(C2=O)[C@@H](Cc2ccc(C)cc2)C(=O)N(C)CC(=O)N[C@@H](CCc2cc(F)c(C(F)(F)F)c(F)c2)C(=O)N2C[C@H](OCC)C[C@H]2C(=O)NC2(CC(C)(C)C2)C(=O)N(C)[C@@H](C2CCCC2)C(=O)N(C)[C@H](C(=O)N(C)C)CC(=O)N(C)[C@@H](CC(C)C)C(=O)N[C@@H]([C@@H](C)CC)C1=O [PP2052] | 4.1 | A (a compound having 10 or more and less than 20 is denoted as A) | A (a compound having 10 or more and less than 20 is denoted as A)
15 | C#CC[C@H]1C(=O)N[C@@H]([C@@H](C)CC)C(=O)N(C)CC(=O)N(C)[C@H]2C/C=C\CCN(C2=O)[C@@H](Cc2ccc(C(F)(F)F)cc2)C(=O)N(C)CC(=O)N[C@@H](CCc2ccc(C(F)(F)F)c(OC)c2)C(=O)N2C[C@H](OCC)C[C@H]2C(=O)NC2(CC(C)(C)C2)C(=O)N(C)[C@@H](C2CCCC2)C(=O)N(C)[C@H](C(=O)N(C)CCC)CC(=O)N1C [PP2053] | 9.3 | A (a compound having 10 or more and less than 20 is denoted as A) | A (a compound having 10 or more and less than 20 is denoted as A)
